Records with an inconclusive call do not appear. Active and inactive are the calls of the source.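 How the source made its calls: active means Wild-type ribosome reporter drop at least double the humanized mutant ribosome reporter drop, growth loss under a set limit; inconclusive means no clear call, values can overlap the other calls; inactive means the rest.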
Legend:
[1] = tested on: E. coli wild-type GFP strain growth, fluorescence, 24 h; assay: growth inhibition of wild-type GFP E. coli, dose response, H69 mutant RFP, cherry-pick (AID 977621);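 further: wild-type GFP and H69 mutant RFP strains grown together 50/50 in each well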
[2] = tested on: E. coli H69 humanized mutant ribosome RFP strain growth, fluorescence, 24 h; assay: as above; settings: test 2
[3] = E. coli mixed culture, 24 h, measured here: total growth OD600, test 2
[4] = measured here: total growth OD600, test 2

SMILES: COc1cc(OC)nc(Oc2ccccc2C(=O)Oc2ccc(C)cc2)n1
- AC50 [1, 3]: 50.4 µM
- AC50 [2]: 51.1 µM

SMILES: NC(=O)c1sc2nnc(-c3ccccc3)c(-c3ccccc3)c2c1N
- AC50 [1]: > 100 µM (inactive)
- AC50 [2]: > 100 µM

SMILES: CN(c1ccccc1)c1ccc([N+](=O)[O-])c2nonc12
- AC50 [1]: > 100 µM (inactive)
- AC50 [2]: 49.4 µM

SMILES: CCOC(=O)CN1C(=O)C(CC)Oc2ccc(Cl)cc21 (centres undefined)
- AC50 [1, 3]: > 100 µM
- AC50 [2]: 5.94 µM

SMILES: COc1ccc(C)cc1NC(=O)c1nn(C)cc1Br
- AC50 [1]: > 100 µM (inactive)
- AC50 [1, 3]: 33.9 µM
- AC50 [2]: > 100 µM

SMILES: O=C(CSc1nc2scc(-c3ccccc3)c2c(=O)[nH]1)N1CCCCC1
- AC50 [1]: > 100 µM (inactive)
- AC50 [1, 3]: 44.2 µM
- AC50 [2]: > 100 µM

SMILES: Cc1nnn(C23CC4CC(CC(CC(=O)Nc5ccc(C)c(C)c5)(C4)C2)C3)n1
- AC50 [1]: > 100 µM (inactive)
- AC50 [2]: > 100 µM

SMILES: CC1CCCN(c2nc(N(C)c3ccccc3)nc(N)c2[N+](=O)[O-])C1 (centres undefined)
- AC50 [1]: > 100 µM (inactive)
- AC50 [2]: 50.7 µM

SMILES: COc1ccc(-c2csc3ncn(-c4ccccc4OC)c(=O)c23)cc1OC
- AC50 [1]: > 100 µM (inactive)
- AC50 [2]: > 100 µM

SMILES: CSc1nc2nc3c(cc2c(=O)n1-c1ccccc1C)CCCC3
- AC50 [1, 3]: > 100 µM
- AC50 [2]: > 100 µM

SMILES: COc1ccc(-c2nc(NC(C)=O)sc2-c2ccccc2)cc1
- AC50 [1, 3]: 44.1 µM
- AC50 [2]: 49.1 µM

SMILES: O=C(CSCc1c(Cl)cccc1Cl)Nc1cccnc1
- AC50 [1]: > 100 µM (inactive)
- AC50 [1, 3]: > 100 µM
- AC50 [2]: 5.01 µM

SMILES: O=S1(=O)N[C@H](Cc2ccccc2)COc2cccc(N3CCC[C@H]3CO)c21
- AC50 [1, 3]: > 100 µM
- AC50 [2]: > 100 µM

SMILES: COc1ccccc1-n1c(Cc2ccccc2)nc2ccccc2c1=O
- AC50 [1]: > 100 µM (inactive)
- AC50 [1, 4]: 33 µM
- AC50 [2]: 47.8 µM

SMILES: CCc1ccn2cc(-c3ccc4c(c3)OCO4)nc2c1
- AC50 [1, 3]: > 100 µM
- AC50 [2]: > 100 µM

SMILES: Cc1ccccc1-n1c([C@@H]2C[C@H]2c2ccccc2)n[nH]c1=S
- AC50 [1, 3]: 1.6 µM
- AC50 [2]: 5.56 µM

SMILES: O=C(NCc1ccccc1Cl)[C@H]1CCCN1C(=O)[C@H]1CCCN1C(=O)c1cccc2ccccc12
- AC50 [1]: > 100 µM (inactive)
- AC50 [1, 3]: 48 µM
- AC50 [2]: > 100 µM

SMILES: Cc1cccc(C)c1NC(=O)C1(C)CSCC(=O)N1CCOc1ccccc1 (centres undefined)
- AC50 [1, 3]: > 100 µM
- AC50 [2]: > 100 µM

SMILES: COc1ccccc1NC(=O)CSc1nccn1Cc1ccc(F)cc1
- AC50 [1, 3]: > 100 µM
- AC50 [2]: 30.8 µM

SMILES: O=C(Nc1ccc(Br)cc1)c1cccnc1N1CCCCC1
- AC50 [1, 3]: 45.7 µM
- AC50 [2]: > 100 µM

SMILES: Cc1ccc(S(=O)(=O)Nc2ccccc2CNc2ccccn2)cc1
- AC50 [1]: > 100 µM (inactive)
- AC50 [1, 3]: 48.9 µM
- AC50 [2]: 50.6 µM

SMILES: O=C(O)CCSc1nc2ccccc2n1-c1ccccc1
- AC50 [1]: > 100 µM (inactive)
- AC50 [1, 3]: 26.9 µM
- AC50 [2]: 7.77 µM

SMILES: O=C(O)C1CCCCC1C(=O)Nc1ccc(OCc2ccccc2)cc1 (centres undefined)
- AC50 [1]: > 100 µM (inactive)
- AC50 [2]: > 100 µM

SMILES: C[C@]12CCC3C(CC[C@H]4C[C@@H](O)CC[C@]34C)[C@H]1CC[C@H]2O (some centres undefined)
- AC50 [1, 4]: 43.3 µM
- AC50 [2]: > 100 µM

SMILES: C=C1c2cc3c(cc2NC(=S)N1Cc1ccccc1)OCO3
- AC50 [1, 3]: < 0.6 µM
- AC50 [2]: > 100 µM

SMILES: COc1ccccc1NS(=O)(=O)c1cc(C(=O)Nc2ccc(S(=O)(=O)Nc3onc(C)c3C)cc2)ccc1C
- AC50 [1]: > 100 µM (inactive)
- AC50 [2]: 4.45 µM

— PubChem BioAssay AID977621 (Broad Institute, 2014)
